In patent US10947252B2, “Inhibitors of KEAP1-Nrf2 protein-protein interaction” (Janssen Pharmaceutica NV, priority 2018, dated 2021):
Counter-ions that a name gives are not always drawn.

Key:
[1] = biological target: Kelch domain of human KEAP1 (321-624 aa) (Homo sapiens (Human), UniProt Q14145); experiment: KEAP1 KELCH ThermoFluor binding assay; details: KEAP Kelch […], 1,8-ANS, pH 7.0, average of results obtained, read-out: Tf Kd;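 further: Ligand-induced melting temperature shift of E. coli-expressed KEAP1 Kelch protein, Kd estimated from concentration-response curves of ΔTm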
Text: The shift in the melting point described as a ΔTm is proportional to the concentration and affinity of the ligand. The compound potency may be compared as a rank order of either ΔTm values at a single compound concentration or in terms of KD values, estimated from concentration response curves.
The protein was expressed in E. coli with 6His tag that was cleaved prior to receipt for use.
Protein (KEAP Kelch) and compound solutions were dispensed into black 384-well polypropylene PCR microplates (Abgene) and overlayed with silicone oil (1 μL, Fluka, type DC 200) to prevent evaporation.

[2] = test system: Glo-Response ARE-luc2P HEK293 cell line; experiment: ARE luciferase reporter cell-based assay; details: average of results obtained;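 further: luciferase signal tracks Nrf2 activation of the ARE once compounds disrupt KEAP1-Nrf2 binding, read with One-Glo reagent, DMSO serving as low control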

Chain of Kelch domain of human KEAP1 (321-624 aa) (Q14145 321-624): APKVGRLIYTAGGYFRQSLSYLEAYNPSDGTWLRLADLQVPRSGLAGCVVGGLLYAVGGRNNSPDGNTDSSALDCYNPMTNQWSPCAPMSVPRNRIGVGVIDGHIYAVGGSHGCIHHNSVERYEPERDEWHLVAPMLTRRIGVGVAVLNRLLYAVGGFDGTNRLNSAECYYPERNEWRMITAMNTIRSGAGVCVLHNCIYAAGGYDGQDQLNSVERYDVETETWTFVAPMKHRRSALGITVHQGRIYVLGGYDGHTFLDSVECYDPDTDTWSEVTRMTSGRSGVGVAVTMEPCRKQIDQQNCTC

Kd [1] [nM]	Compound	EC50 ([2]; Homo sapiens, HEK293, 24 h) [nM]	EC50 ([2]; 24 hours) [nM]
< 1	CCn1nnc2c(C)c(C(CC(=O)O)c3ccc(C)c(CN4C[C@@H]5CCCN5c5ncccc5S4(=O)=O)c3)ccc21 (mixture of isomers) [Example 155, (R/S)-3-(3-(((S)-5,5-Dioxido-7a,8,9,10-tetrahydropyrido[2,3-f]pyrrolo[2,1-d][1,2,5]thiadiazepin-6(7H)-yl)methyl)-4-methylphenyl)-3-(1-ethyl-4-methyl-1H-benzo[d][1,2,3]triazol-5-yl)propanoic Acid]	6.1	
< 1	CC[C@@H]1CN(Cc2cc(C(CC(=O)O)c3ccn4c(C)nnc4c3)ccc2C)S(=O)(=O)c2cccnc2O1 (mixture of isomers) [Example 162, (R/S)-3-(3-(((R)-4-Ethyl-1,1-dioxido-3,4-dihydro-2H-pyrido[2,3-b][1,4,5]oxathiazepin-2-yl)methyl)-4-methylphenyl)-3-(3-methyl-[1,2,4]triazolo[4,3-a]pyridin-7-yl)propanoic Acid]	2440	
< 1	Cc1ccc(C(CC(=O)O)c2ccn3c(C4CC4)nnc3c2C)cc1CN1C[C@H]2CCCN2c2ncccc2S1(=O)=O (mixture of isomers) [Example 167, (R/S)-3-(3-Cyclopropyl-8-methyl-[1,2,4]triazolo[4,3-a]pyridin-7-yl)-3-(3-(((R)-5,5-dioxido-7a,8,9,10-tetrahydropyrido[2,3-f]pyrrolo[2,1-d][1,2,5]thiadiazepin-6(7H)-yl)methyl)-4-methylphenyl)propanoic Acid]	1140	
< 1	CC[C@@H]1CN(Cc2nc(C(CC(=O)O)c3ccc4c(nnn4C4CC4)c3C)ccc2C)S(=O)(=O)c2cccnc2O1 (mixture of isomers) [Example 174, (R/S)-3-(1-Cyclopropyl-4-methyl-1H-benzo[d][1,2,3]triazol-5-yl)-3-(6-(((R)-4-ethyl-1,1-dioxido-3,4-dihydro-2H-pyrido[2,3-b][1,4,5]oxathiazepin-2-yl)methyl)-5-methylpyridin-2-yl)propanoic Acid]	15	
< 1	CC[C@@H]1CN(Cc2cc(C(CC(=O)O)c3ccn4c(C(F)(F)F)nnc4c3C)ccc2C)S(=O)(=O)c2cccnc2O1 (mixture of isomers) [Example 188, (R/S)-3-(3-(((R)-4-ethyl-1,1-dioxido-3,4-dihydro-2H-pyrido[2,3-b][1,4,5]oxathiazepin-2-yl)methyl)-4-methylphenyl)-3-(8-methyl-3-(trifluoromethyl)-[1,2,4]triazolo[4,3-a]pyridin-7-yl)propanoic acid]	17	
< 1	Cc1ccc(C(CC(=O)O)c2ccc3c(nnn3C3CC3)c2C)cc1CN1C[C@H]2CCCN2c2ncccc2S1(=O)=O (mixture of isomers) [Example 209, (R/S)-3-(1-Cyclopropyl-4-methyl-1H-benzo[d][1,2,3]triazol-5-yl)-3-(3-(((R)-5,5-dioxido-7a,8,9,10-tetrahydropyrido[2,3-f]pyrrolo[2,1-d][1,2,5]thiadiazepin-6(7H)-yl)methyl)-4-methylphenyl)propanoic Acid]	8.8	
< 1	CC[C@@H]1CN(Cc2cc(C(CC(=O)O)c3cc(OC(F)F)c4c(c3)nnn4C)ccc2C)S(=O)(=O)c2cccnc2O1 (mixture of isomers) [Example 249, 3-(7-(Difluoromethoxy)-1-methyl-1H-benzo[d][1,2,3]triazol-5-yl)-3-(3-(((R)-4-ethyl-1,1-dioxido-3,4-dihydro-2H-pyrido[2,3-b][1,4,5]oxathiazepin-2-yl)methyl)-4-methylphenyl)propanoic Acid and its Trifluoroacetic Acid Salt]	28.6	
1.51	Cc1cc2cc(C(CC(=O)O)c3ccc(C)c(CN4C[C@H]5CCCN5c5ncccc5S4(=O)=O)c3)n(C)c2nn1 (mixture of isomers) [Example 434, 3-(3,7-Dimethyl-7H-pyrrolo[2,3-c]pyridazin-6-yl)-3-(3-(((R)-5,5-dioxido-7a,8,9,10-tetrahydropyrido[2,3-f]pyrrolo[2,1-d][1,2,5]thiadiazepin-6(7H)-yl)methyl)-4-methylphenyl)propanoic Acid]	3870	
1.84	Cc1cc2cc(C(CC(=O)O)c3ccc(C)c(CN4C[C@@H]5CCCN5c5ncccc5S4(=O)=O)c3)n(C)c2nn1 (mixture of isomers) [Example 437, 3-(3,7-Dimethyl-7H-pyrrolo[2,3-c]pyridazin-6-yl)-3-(3-(((S)-5,5-dioxido-7a, 8,9,10-tetrahydropyrido[2,3-f]pyrrolo[2,1-d][1,2,5]thiadiazepin-6(7H)-yl)methyl)-4-methylphenyl)propanoic Acid]	4380	
< 1	Cc1cc2cc(C(CC(=O)O)c3ccc(C)c(CN4C[C@@H]5CCCCN5c5ncccc5S4(=O)=O)c3)n(C)c2nn1 (mixture of isomers) [Example 440, 3-(3,7-Dimethyl-7H-pyrrolo[2,3-c]pyridazin-6-yl)-3-(3-(((S)-5,5-dioxido-7,7a,8,9,10,11-hexahydro-6H-dipyrido[2,1-d:2′,3′-f][1,2,5]thiadiazepin-6-yl)methyl)-4-methylphenyl)propanoic Acid]	714	
< 1	Cc1ccc(C(CC(=O)O)c2ccn3c(C(F)F)nnc3c2C)cc1CN1C[C@H]2CCCN2c2ncccc2S1(=O)=O (mixture of isomers) [Example 449, 3-(3-(Difluoromethyl)-8-methyl-[1,2,4]triazolo[4,3-a]pyridin-7-yl)-3-(3-(((R)-5,5-dioxido-7a,8,9,10-tetrahydropyrido[2,3-f]pyrrolo[2,1-d][1,2,5]thiadiazepin-6(7H)-yl)methyl)-4-methylphenyl)propanoic Acid]	47.6	
< 1	Cc1cnc2c(c1)S(=O)(=O)N(Cc1cc([C@H](c3ccn4c(C(F)(F)F)nnc4c3C)C(C)(C)C(=O)O)cnc1C)CC1(CC1)O2 (single isomer, unassigned) [Example 573, (*S)-2,2-Dimethyl-3-(8-methyl-3-(trifluoromethyl)-[1,2,4]triazolo[4,3-a]pyridin-7-yl)-3-(6-methyl-5-((8′-methyl-1′,1′-dioxidospiro[cyclopropane-1,4′-pyrido[2,3-b][1,4,5]oxathiazepin]-2′(3′H)-yl)methyl)pyridin-3-yl)propanoic Acid]		
6750	Cc1cnc2c(c1)S(=O)(=O)N(Cc1cc(C(c3ccn4c(C(F)(F)F)nnc4c3C)C(C)(C)C(=O)O)cnc1C)CC1(CC1)O2 (single isomer, unassigned) [Example 574, (*R)-2,2-Dimethyl-3-(8-methyl-3-(trifluoromethyl)-[1,2,4]triazolo[4,3-a]pyridin-7-yl)-3-(6-methyl-5-((8′-methyl-1′,1′-dioxidospiro[cyclopropane-1,4′-pyrido[2,3-b][1,4,5]oxathiazepin]-2′(3′H)-yl)methyl)pyridin-3-yl)propanoic Acid]		
< 1	Cc1ccc([C@@H](c2ccc3c(nnn3C3CC3)c2C)C(C)(C)C(=O)O)cc1CN1CC2(CC2)Oc2nc(N[C@@H](C)CN3CCCCC3)c(C)cc2S1(=O)=O (single isomer, unassigned) [Example 659, (*S)-3-(1-Cyclopropyl-4-methyl-1H-benzo[d][1,2,3]triazol-5-yl)-2,2-dimethyl-3-(4-methyl-3-((8′-methyl-1′,1′-dioxido-7′-(((S)-1-(piperidin-1-yl)propan-2-yl)amino)spiro[cyclopropane-1,4′-pyrido[2,3-b][1,4,5]oxathiazepin]-2′(3′H)-yl)methyl)phenyl)propanoic Acid]		
< 1	Cc1ccc([C@@H](c2ccn3c(C(F)(F)F)nnc3c2C)C(C)(C)C(=O)O)cc1CN1CC2(CC2)Oc2nc(OCCN3CCC(F)CC3)c(C)cc2S1(=O)=O (single isomer, unassigned) [Example 661, (*S)-3-(3-((7′-(2-(4-fluoropiperidin-1-yl)ethoxy)-8′-methyl-1′,1′-dioxidospiro[cyclopropane-1,4′-pyrido[2,3-b][1,4,5]oxathiazepin]-2′(3′H)-yl)methyl)-4-methylphenyl)-2,2-dimethyl-3-(8-methyl-3-(trifluoromethyl)-[1,2,4]triazolo[4,3-a]pyridine-7-yl)propanoic Acid]		
	Cc1cnc2c(c1)S(=O)(=O)N(Cc1cc(C(c3ccn4c(C(F)(F)F)nnc4c3)C(C)(C)C(=O)O)ccc1C)CC1(CC1)O2 (stereo not drawn) [Example 322, 2,2-Dimethyl-3-(4-methyl-3-((8′-methyl-1′,1′-dioxidospiro[cyclopropane-1,4′-pyrido[2,3-b][1,4,5]oxathiazepin]-2′(3′H)-yl)methyl)phenyl)-3-(3-(trifluoromethyl)-[1,2,4]triazolo[4,3-a]pyridin-7-yl)propanoic Acid]	22.4	
	Cc1cnc2c(c1)S(=O)(=O)N(Cc1cc(C(c3ccn4c(C(F)(F)F)nnc4c3C)C(C)(C)C(=O)O)ccc1C)CC1(CCOCC1)O2 (stereo not drawn) [Example 406, 2,2-Dimethyl-3-(4-methyl-3-((8′-methyl-1′,1′-dioxido-2,3,5,6-tetrahydrospiro[pyran-4,4′-pyrido[2,3-b][1,4,5]oxathiazepin]-2′(3′H)-yl)methyl)phenyl)-3-(8-methyl-3-(trifluoromethyl)-[1,2,4]triazolo[4,3-a]pyridin-7-yl)propanoic Acid]		3.6

Compound	Kd [1] [nM]	EC50 ([2]; Homo sapiens, HEK293, 24 h) [nM]	EC50 ([2]; 24 hours) [nM]
Cc1ccc(C(CC(=O)O)c2cc(OC(F)F)c3c(c2)nnn3C)cc1CN1C[C@H]2CCCN2c2ncccc2S1(=O)=O (mixture of isomers) [Example 246, 3-(7-(Difluoromethoxy)-1-methyl-1H-benzo[d][1,2,3]triazol-5-yl)-3-(3-(((R)-5,5-dioxido-7a,8,9,10-tetrahydropyrido[2,3-f]pyrrolo[2,1-d][1,2,5]thiadiazepin-6(7H)-yl)methyl)-4-methylphenyl)propanoic Acid and its Trifluoroacetic Acid Salt]	< 1	87.3	
